Entries after “also recorded” stand apart in the source; their conditions may differ.
Key:
[1] = Clinical study of safety and tolerability of multiple doses of ZD4054 in healthy young volunteers; format: in vivo, man
Protocol: (§1) A study was undertaken to assess the safety and tolerability of multiple doses of ZD4054 in healthy young volunteers at dose levels of 100 mg, 50 mg and 25 mg daily.
(§2) At the 100 mg dose level 16 volunteers participated (12 active and 4 placebo). They received a 100 mg ZD4054 or placebo single dose and one week later commenced daily dosing. Dosing was stopped within 3-5 days of continuous dosing in the majority of ZD4054 treated subjects due to headache. Of the 12 subjects receiving ZD4054, 10 were additionally given zolmitriptan (2.5 mg tablets) at some stage (in addition to paracetamol and in some cases ibuprofen).
(§3) Note: all subjects received paracetamol (1 g every 4 hours for the first 16 hours post the first dose of ZD4054) on the first day of multiple dosing. Analgesics were given as required.

[2] = Treatment of ZD4054 induced headache in subjects of the clinical study (zolmitriptan, standard analgesics); format: in vivo, man; conditions: for effect of standard analgesic therapy on ZD4054 induced headaches: subjects with ZD4054 induced headache
Protocol: Based on citations by Carducci (Carducci, 2002) a number of “standard analgesic therapies” were tried, including paracetamol, ibuprofen and codeine to treat the ZD4054 induced headaches.
as §1, §2, §3
An explanation of CTC grades which stands for Common Toxicity Criteria, can be found in a document from the National Institute of Health, Version 2.0, DCTD, NCI, NIH, DHHS March 1998.

[3] = man, recommended dose of 125-250 mg bid; cited from earlier work
[4] = cancer patients, doses of 20 mg and above; cited from earlier work

SMILES: COc1nc(C)cnc1NS(=O)(=O)c1cccnc1-c1ccc(-c2nnco2)cc1 [ZD4054, N-(3-methoxy-5-methylpyrazin-2-yl)-2-(4-[1,3,4-oxadiazol-2-yl]phenyl)pyridine-3-sulphonamide]
- time of continuous dosing until dosing was stopped due to headache ([1]; 100 mg daily, majority of ZD4054 treated subjects): 3 to 5 days
- induction of headache in man ([1]; clinical testing in man): induces headaches in man

SMILES: CN(C)CCc1c[nH]c2ccc(C[C@H]3COC(=O)N3)cc12 [zolmitriptan]
- headache grade after treatment ([2]; Subject 7, from CTC grade 2 on second day of multiple dosing, 2.5 mg plus 2.5 mg 50 mins later, 1-1.5 hours later): 1 CTC grade
- headache grade after treatment ([2]; Subject 10, day 3, from CTC grade 3, 2.5 mg plus 2.5 mg 50 mins later, 2.5 h later): 1 CTC grade
- headache grade after treatment ([2]; Subject 10, second day, from CTC grade 3, 2.5 mg): 2 CTC grade
- patients noting at least at one stage that their headache was alleviated ([2]; of 10 subjects given zolmitriptan 2.5 mg tablets, ZD4054 100 mg): Seven
- effect on intensity/severity of ZD4054 induced headache ([2]; subjects in which standard analgesic therapy had failed, 2.5-5 mg orally): effective in reducing the intensity of ZD4054 induced headaches in some subjects; also recorded: effective in reducing the severity of headache

SMILES: COc1ccccc1Oc1c(NS(=O)(=O)c2ccc(C(C)(C)C)cc2)nc(-c2ncccn2)nc1OCCO [Bosentan]
- subjects with induced headaches [3]: 22%

SMILES: CC(=O)Nc1ccc(O)cc1 [paracetamol]
- improvement of headache ([2]; Subject 7, CTC grade 2 headache, second day of multiple dosing): little improvement
- headache grade despite treatment ([2]; Subject 10, second day, increased from CTC grade 1): 3 CTC grade
- effect of standard analgesic therapy on ZD4054 induced headaches [2]: several subjects still reported persistent headache

SMILES: CCCCN(CCCC)C(=O)CN1C[C@H](c2ccc3c(c2)OCO3)[C@@H](C(=O)O)[C@@H]1c1ccc(OC)cc1 [Atrasentan]
- incidence of headache [4]: 50-100%

SMILES: COc1ccc2c3c1O[C@H]1[C@@H](O)C=C[C@H]4[C@@H](C2)N(C)CC[C@@]341 [codeine]
- effect of standard analgesic therapy on ZD4054 induced headaches [2]: several subjects still reported persistent headache

SMILES: CC(C)Cc1ccc(C(C)C(=O)O)cc1 (centres unmarked) [ibuprofen]
- effect of standard analgesic therapy on ZD4054 induced headaches [2]: several subjects still reported persistent headache

From patent US20060009512A1, “5-ht 1b/1d receptor agonists for the treatment of headache resulting from administering an endothelin receptor antagonist” (priority 2002, published 2006)
